Values quoted from earlier work in patent US20020187165A1, “Composition for female sexual arousal” (Joseph F. Long, priority 2001, published 2002).

Conditions: following oral administration

Cn1cc([S+](C)[O-])c(=O)c2ccc(F)cc21 (stereo not shown) [flosequinan]
time of peak plasma concentrations: 1 to 2 h
